Data published in article PMC12563652 (International Journal of Molecular Sciences, 2025).
Read-outs that look alike come from different tables or passages of the source.

Key:
3T3-L1 cells = assay: Lipid accumulation (AdipoRed assay) in 3T3-L1 cells; format: cell-based, mouse
Protocol: (§1) The 3T3-L1 mouse embryonic fibroblast cell line (ATCC CRL-11605) was cultured according to the standard protocol in Dulbecco’s Modified Eagle Medium (DMEM) supplemented with 10% bovine calf serum, 100 µg/mL streptomycin, and 100 IU/mL penicillin, at 37 °C in a humidified atmosphere containing 5% CO2. Cells were seeded at a density of 10,000 cells/well in collagen type I–coated (10 µg/mL) 96-well plates and allowed to attach for 24 h. Differentiation was initiated by replacing the medium with induction medium composed of DMEM, 0.5 mM 3-isobutyl-1-methylxanthine (IBMX), 1 µM dexamethasone, and 10% fetal bovine serum (FBS). After 48 h (differentiation day 2), the medium was replaced with DMEM supplemented with 10% FBS and 10 µg/mL human recombinant insulin. After an additional 24 h, the medium was replaced with DMEM supplemented with 10% bovine calf serum, 100 µg/mL streptomycin, and 100 IU/mL penicillin. The medium was refreshed every 24 h for 10 consecutive days to allow full differentiation into adipocytes.
On day 10 of differentiation, cells were treated with test compounds for 24 h. To investigate the involvement of the TAAR1 receptor, cells were pre-treated for 15 min with the selective TAAR1 antagonist RTI-7470-44 (40 nM) before compound exposure. After incubation, the culture medium was removed, and wells were gently rinsed with 200 µL PBS and refilled with 200 µL PBS. AdipoRed reagent (5 µL; Lonza) was added to each well, mixed, and incubated at room temperature for 10 min. Fluorescence was measured using the POLARstar Omega plate reader (excitation 485 nm, emission 535 nm).

HEPG2 cell line = format: cell-based; conditions: human, 24 h
Protocol: (§2) Prior to investigating the biological activity and molecular characteristics of the test compounds in vitro, a comprehensive cytotoxicity screening was performed using HepG2 and 3T3-L1 cell lines. Two complementary assays were applied: one based on the quantification of adenylate kinase release as an indicator of cell membrane damage, and another relying on resazurin reduction to assess cellular metabolic activity. These complementary assays enable sensitive and reliable detection of cytotoxic effects across diverse cell types. This preliminary assessment was carried out to ensure that subsequent functional analyses would not be confounded by nonspecific cytotoxic effects.
(§3) The damage of cell membrane was evaluated with the ToxiLight BioAssay Kit from Lonza (Visp, Switzerland). This test is very sensitive and measures cell damage by looking at the release of adenylate kinase (AK). After 24 h of treatment, 5 µL of culture supernatant was transferred to a 384-well white plate (PerkinElmer, Singapore), followed by the addition of 20 µL of Adenylate Kinase Detection Reagent (AKDR). After a 10 min incubation at room temperature, luminescence was measured using the POLARstar Omega plate reader (BMG Labtech, Ortenberg, Germany). Results were expressed as a percentage relative to a lysed control (100% cell death).

3T3L1 cell line = format: cell-based; conditions: mouse, 24 h
Protocol: as §2, §3

Danio rerio larvae = assay: Fructose-induced lipid disturbance in zebrafish larvae (Oil Red O); format: in vivo; conditions: 10 µg/mL with 4% fructose, 24 h
Protocol: Zebrafish larvae 4 dpf were incubated for another 24 h with 4% fructose (final solution) in embryo medium to induce metabolic disorders. Tested solutions (compounds in E3: JP-14 at concentration of 20 μg/mL or resveratrol of 40 μg/mL) were added to fructose solution (8% in E3). The final concentration of JP-14 was 10 μg/mL or resveratrol of 20 μg/mL. The control group was incubated with E3 only. Incubation was carried out in a 6-well plate (10 larvae/well) to which 3 mL of liquid was added per well. Larvae were then collected, euthanized with tricaine, and transferred to 4% formaldehyde solution. After 24 h, larvae were washed 3 times with PBS (Sigma-Aldrich, Germany) and stained for neutral lipids, similar to previous studies. Larvae incubated for 1 h in a solution of 0.25% oil red O (ORO, Merck, Darmstadt, Germany) in 60% isopropanol (Merck, Germany). The samples were then rinsed three times with 60% isopropanol and washed 6 times with PBS, then imaged on a microscope (OPTA-TECH MN16, Warszawa, Poland) and analyzed with the ImageJ FIJI program. […] Next, the samples were centrifuged (10 min, 3000 rpm, MPW-260R, MPW Med Instruments, Warszawa, Poland), and the amount of dye in supernatant was determined spectrophotometrically (MuLTISKAN.GO, Thermo Fisher Scientific Inc. Waltham, MA, USA) at a wavelength of 495 nm.

3T3-L1 adipocytes = assay: Phospholipidosis, HCS LipidTOX imaging in 3T3-L1 adipocytes; format: cell-based, mouse
Protocol: as §1
Lipid accumulation and phospholipidosis were evaluated using the HCS LipidTOX Phospholipidosis and Steatosis Detection Kit (Thermo Fisher Scientific). Cells were cultured in black, clear-bottom 96-well plates and treated as described. Next, cells were fixed with 4% paraformaldehyde (15 min), washed with PBS, and stained with LipidTOX Green Neutral Lipid Stain (for steatosis) and LipidTOX Red Phospholipidosis Detection Reagent, prepared according to the manufacturer’s instructions. Nuclei were counterstained with Hoechst 33342 (2 µg/mL). Image acquisition and quantitative analysis were performed using High Content Screening (HCS) technology on the ImageXpress XLS system (Molecular Devices). Lipid droplet and phospholipid content were quantified using automated image analysis pipelines.

human TAAR1 = target: T1, human TAAR1 (Homo sapiens, UniProt Q96RJ0); assay: TAAR1 agonist activity, Hit Hunter cAMP assay; format: cell-based
T1 sequence (Q96RJ0 1-339): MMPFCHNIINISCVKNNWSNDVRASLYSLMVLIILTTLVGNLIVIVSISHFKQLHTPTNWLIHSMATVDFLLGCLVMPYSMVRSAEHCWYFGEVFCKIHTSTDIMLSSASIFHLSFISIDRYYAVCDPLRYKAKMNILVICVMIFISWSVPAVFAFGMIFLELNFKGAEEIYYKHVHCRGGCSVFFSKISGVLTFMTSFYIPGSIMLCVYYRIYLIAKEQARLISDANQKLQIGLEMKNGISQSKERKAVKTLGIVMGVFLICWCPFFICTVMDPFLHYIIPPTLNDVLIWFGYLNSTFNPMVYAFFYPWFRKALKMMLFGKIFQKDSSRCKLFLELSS
Protocol: The intrinsic activity of the TAAR1 receptor will be assessed according to the manufacturer’s protocol, using the Hit Hunter® cAMP assay by DiscoverX. This assay enables monitoring of GPCR activation in cells stably expressing TAAR1 by measuring changes in the level of the secondary messenger, cAMP. The cAMP Hunter cell lines were cultured from frozen stocks following standard procedures. Cells were plated in white-walled 384-well microplates at a total volume of 20 µL per well and incubated at 37 °C for the required period before analysis. To assess agonist activity, cells were exposed to the test compound to trigger a response. The culture medium was then removed and replaced with 15 µL of a 2:1 mixture of HBSS and 10 mM Hepes containing the cAMP XS+ antibody reagent. Sample stocks were diluted to prepare a 4× concentration in assay buffer. Subsequently, 5 µL of the 4× sample was added to each well, and the plates were incubated at either 37 °C or room temperature for 30 or 60 min. The vehicle was used at a concentration of 1%. After incubating the compounds for the required time, the assay signal was produced by adding 20 µL of the cAMP XS+ ED/CL lysis cocktail and incubating for one hour. This was followed by a three-hour incubation with 20 µL of the cAMP XS+EA reagent at room temperature. After signal development, the microplates were read using a PerkinElmer Envision Reader to detect chemiluminescence.

`[H]/N=C(\N)NN=Cc1c(Cl)cncc1Cl` [JP-14, (E)-2-((3,5-Dichloropyridin-4-yl)Methylene)Hydrazine-1-Carboximidamide] was tested, and the “lipid-lowering effect under TAAR1 blockade” value (3T3-L1 cells; 10 µM + RTI-7470-44 (40 nM)) was “completely abolished”, the “lipid accumulation (intracellular lipid content), reduction” value (3T3-L1 cells; 10 µM, compared to vehicle-treated controls) was 35% and the “membrane integrity, percentage relative to control (death cells)” value (HEPG2 cell line; 0.1 μM) was 6%. The “membrane integrity, percentage relative to control (death cells)” value (HEPG2 cell line; 1 μM) was 6%, the “membrane integrity, percentage relative to control (death cells)” value (HEPG2 cell line; 10 μM) was 6% and the “membrane integrity, percentage relative to control (death cells)” value (HEPG2 cell line; 50 μM) was 10%. The “membrane integrity, percentage relative to control (death cells)” value (HEPG2 cell line; 100 μM) was 8%, the “membrane integrity, percentage relative to control (death cells)” value (3T3L1 cell line; 0.1 μM) was 6% and the “membrane integrity, percentage relative to control (death cells)” value (3T3L1 cell line; 1 μM) was 6%. For the same compound, the “membrane integrity, percentage relative to control (death cells)” value (3T3L1 cell line; 10 μM) was 5%, the “membrane integrity, percentage relative to control (death cells)” value (3T3L1 cell line; 50 μM) was 4% and the “membrane integrity, percentage relative to control (death cells)” value (3T3L1 cell line; 100 μM) was 5%. The fructose-induced yolk enlargement (Danio rerio larvae) was “partially attenuated”, the “effect on phospholipidosis under TAAR1 blockade” value (3T3-L1 adipocytes; 10 µM + RTI-7470-44 (40 nM)) was “reversed” and the “phospholipidosis (phospholipid accumulation)” value (3T3-L1 adipocytes; 10 µM, vs vehicle) was “significantly reduced”. The “maximum cell stimulation (cAMP level) compared with the highest concentration of tyramine” value (human TAAR1; TAAR1-expressing cells) was “about twice as high” and the EC50 (human TAAR1; cAMP accumulation, n.a. = no activity at 10–5 M, read-out: TAAR1 Ago EC50) was 11.3 ± 1.4 µM.
